These results are taken from patent US5428061A, “Organic nitrates and method for their preparation” (Schwarz Pharma AG, priority 1988, dated 1995).

pEC50: −log10 of the molar value. Where two headings read alike, the source gives them in different places. A value given as a limit tells only on which side of the number the result lay.

For data set [1], the system named is circulatory parameters of a dog that is awake. Kind of data set: Action of organic nitrates on circulatory parameters of the awake dog after intravenous or oral administration. Type of data set: in vivo. The note with it: awake beagle dogs. Here is the method: Administration of new organic nitrates to detect the nitrate action on the circulatory parameters of a dog that is awake.
The purpose of the test is to determine how the new organic nitrates act on various circulatory parameters of a dog that is awake after intravenous or oral administration. All experiments were carried out on trained beagle dogs; the circulatory parameters were measured with an arterial catheter tip manometer and a balloon catheter introduced into the V. jugularis. In order to describe the action on the arterial system, the systolic, mean and diastolic blood pressure (BP) and heart rate (HR) were measured. […] The low pressure system was measured through the central venous pressure (CVP) and the pulmonary arterial pressure (PAP). The control or reference product used was isosorbid-5-mononitrate (ISM-5).

The test system of data set [2] is guinea pig heart. Put plainly: Coronary flow in working heart model (guinea pig heart). Particulars: for EC25: Cavia porcellus, read-out: concentration for a coronary flow increase of 25%. As to the method:
Finally, the action of N-(3-nitratopivaloyl)-cysteine ethyl ester (Nitrato-Piv-Cy-Et) was characterized on guinea pig heart. […] A flow increase of 25% is achieved even with 380 μg of nitrato-Piv-Cy-Et per liter of perfusion medium, corresponding to 1.3 μmole per liter. The corresponding concentration for glycerol trinitrate (GTN) with 5 mg/liter is at least a factor of 12 times higher. Thus, in the case of Nitrato-Piv-Cy-Et we are dealing with an especially active compound with regard to the vessels.

Data set [3] deals with isolated perfused rat heart. Kind of data set: Coronary flow increase and tolerance in isolated perfused working rat heart. The note with it: for Activity Drop in flow / Maximum Coronary Increase: 100 μM, isolated perfused rat hearts, n = 7; for Maximum Coronary Increase: x ± SEM. An excerpt:
Determining the lack of tolerance to the action of new organic nitrates on increasing coronary flow in isolated perfused heart.
The purpose of the present investigation was to study the action and the development of tolerance to new organic nitrate compounds on isolated perfused rat heart. For this purpose, a rat heart was isolated and prepared as a "working heart".
In this experimental arrangement, the heart performs defined circulatory work from which a defined oxygen consumption and coronary flow result. The action of nitrate-like compounds can be measured in this model by the drug-induced coronary flow increase.
The resistance of the coronary vessels on an isolated working rat heart was chosen as the parameter for the detection of the action of the nitrate. A rat heart with a weight of about one gram is perfused through the left auricle with a plasma-like solution which contains nutrients and is saturated with oxygen. The left ventricle pumps the solution into the aorta against a defined pressure. Corresponding to the physiological conditions, a part of this solution flows through the coronary vessels for supplying the heart itself. At a defined work of the heart, this fraction, from which the coronary resistance can be calculated, is constant. The addition of a nitrate or other coronary dilating drug causes a drop in this coronary resistance. Therefore, if a constant concentration of an organic nitrate is introduced to the heart, then, after an initial decrease of the resistance, a partial loss of activity occurs within 20 minutes. On this model, the substances also show a coronary dilating effect, but this is not followed by a loss in activity. The maximum drop of the coronary resistance is still completely present after 60 minutes. The tested compounds were compared in an equimolar dosage with 10^-4 M nitroglycerin trinitrate. Continuous infusion of nitroglycerin causes a rapid coronary flow increase by 7.6±1.88 ml/min gww (x±SD). […] Upon further perfusion, the action of nitroglycerin is unchanged. In this experimental model, the new nitrates also show a coronary flow increase, but this is followed by only a very slight drop in the activity.

The target in data set [4] is T1, isolated guanyl cyclase (Homo sapiens, UniProt Q02153).
T1 sequence (Q02153 1-619): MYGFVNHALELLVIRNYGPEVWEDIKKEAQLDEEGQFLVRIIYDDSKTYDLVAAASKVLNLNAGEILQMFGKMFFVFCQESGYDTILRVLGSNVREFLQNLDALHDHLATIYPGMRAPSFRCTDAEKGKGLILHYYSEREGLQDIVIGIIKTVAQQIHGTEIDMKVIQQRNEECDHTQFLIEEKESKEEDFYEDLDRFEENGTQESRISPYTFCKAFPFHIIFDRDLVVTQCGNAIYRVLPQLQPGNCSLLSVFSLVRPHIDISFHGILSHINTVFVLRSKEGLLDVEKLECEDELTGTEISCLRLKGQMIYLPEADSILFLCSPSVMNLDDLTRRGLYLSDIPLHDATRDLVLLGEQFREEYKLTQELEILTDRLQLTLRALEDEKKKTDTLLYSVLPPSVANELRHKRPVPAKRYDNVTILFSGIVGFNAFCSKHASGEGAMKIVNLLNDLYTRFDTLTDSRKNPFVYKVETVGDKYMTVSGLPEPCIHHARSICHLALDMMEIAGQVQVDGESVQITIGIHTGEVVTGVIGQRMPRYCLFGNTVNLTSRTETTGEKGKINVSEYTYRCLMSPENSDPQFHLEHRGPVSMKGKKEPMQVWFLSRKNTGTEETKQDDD
T1 sequence (Q02108 1-690 partner): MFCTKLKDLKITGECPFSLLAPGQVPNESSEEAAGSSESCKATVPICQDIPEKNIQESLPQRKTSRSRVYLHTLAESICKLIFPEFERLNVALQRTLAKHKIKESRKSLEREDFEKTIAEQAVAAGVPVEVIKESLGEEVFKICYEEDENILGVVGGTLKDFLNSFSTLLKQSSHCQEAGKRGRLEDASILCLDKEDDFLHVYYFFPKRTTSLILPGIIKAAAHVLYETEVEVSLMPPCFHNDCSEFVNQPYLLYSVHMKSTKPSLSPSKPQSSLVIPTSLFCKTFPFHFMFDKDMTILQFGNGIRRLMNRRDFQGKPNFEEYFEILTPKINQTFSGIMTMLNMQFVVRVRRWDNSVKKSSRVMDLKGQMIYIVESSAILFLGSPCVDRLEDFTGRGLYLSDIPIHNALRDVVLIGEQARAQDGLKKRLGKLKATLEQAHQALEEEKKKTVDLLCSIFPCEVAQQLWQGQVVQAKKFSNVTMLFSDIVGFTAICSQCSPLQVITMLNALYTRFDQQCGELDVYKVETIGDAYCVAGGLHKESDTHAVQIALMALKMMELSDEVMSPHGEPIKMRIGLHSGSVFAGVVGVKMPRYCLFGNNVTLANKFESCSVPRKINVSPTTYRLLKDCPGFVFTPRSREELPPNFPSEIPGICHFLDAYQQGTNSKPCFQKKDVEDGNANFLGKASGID
Kind of data set: Activation of isolated guanyl cyclase (cGMP formation). Particulars: isolated enzyme; for pEC50: read-out: concentration necessary for one-half of the maximum activity (ED50) of guanyl cyclase. The format is biochemical. An excerpt: The concentration necessary for one-half of the maximum activity (ED50) of guanyl cyclase is around 200 μmole/liter. The corresponding value for GTN (in the presence of 5 mmoles/liter of cysteine) is approximately 80 μmoles/liter.

The mark [5] stands for this setting: oral and intravenous administration.
Setting [6] is: working heart model, guinea pig.
Where [7] appears, read: continuous infusion, 10^-4 M, isolated working rat heart.

On to `O=[N+]([O-])O[C@@H]1CO[C@H]2[C@@H]1OC[C@@H]2O` [ISM-5, isosorbid-5-mononitrate], for which, in data set [1] (setting [5]), the “extensibility of the air chamber” value is “increased significantly”, the “low pressure system pressure” value was “decreased”, the mean pressure result was “hardly effected” and the systolic blood pressure result is given as “slight decrease”.
On to `CCOC(=O)[C@H](CS)NC(=O)C(C)(C)CO[N+](=O)[O-]` [N-(3-nitratopivaloyl)-cysteine ethyl ester], for which, in data set [1], the “bioavailability (comparison between intravenous and oral administration)” value is recorded as “good bioavailability”; the “course of action on circulatory parameters” value was “typical of a nitrate”. Moreover, in data set [2] (working heart model, guinea pig, converted from μg per liter), the EC25 worked out at 1.3 µM. The EC25 in data set [2] (working heart model, guinea pig, per liter of perfusion medium) is 0.38 µg/mL. The “weakening of the coronary dilating effect (tolerance development)” value in data set [2] (one hour drenching perfusion, any dose, guinea pig heart) was “No weakening of the coronary dilating effect”. Moreover, the “effect on coronary flow” value in data set [2] (working heart model, guinea pig, very low dose range) is given as “concentration-dependent increase of the coronary flow”. In addition, in data set [3], the “Activity Drop in flow” value came out at 5.2% and the “Maximum Coronary Increase” value worked out at 6.6 ± 0.88 ml/min gww. For the same compound, in data set [4], the “activation of guanyl cyclase (formation of cGMP per unit time)” value is “concentration-dependent activation of the enzyme” and the pEC50 was roughly 3.70. For the same compound, the “activation of guanyl cyclase without cysteine” value in data set [4] (in vitro, absence of cysteine) is recorded as “activation occurs in vitro even in the absence of cysteine”.
On to `O=[N+]([O-])OCC(CO[N+](=O)[O-])O[N+](=O)[O-]` [nitroglycerine, glycerol trinitrate, reference compound], for which, in data set [2] (setting [6]), the EC25 is 5 µg/mL and the “factor by which the concentration for 25% flow increase is higher than for Nitrato-Piv-Cy-Et” value was no less than 12 times. Further, in data set [3], the “Activity Drop in flow” value came to 56.0% and the “Maximum Coronary Increase” value is given as 7.6 ± 0.71 ml/min gww. Moreover, in data set [3] (setting [7]), the “coronary flow increase (x±SD)” value is reported as 7.6±1.88 ml/min gww and the “decrease of flow within 20 minutes” value stood at 55.9%. Besides, the pEC50 in data set [4] (in the presence of 5 mmoles/liter of cysteine) is roughly 4.10.
Take `CCOC(=O)[C@H](CCSC)NC(=O)C(C)(C)CO[N+](=O)[O-]` [N-(3-nitratopivaloyl)-methionine ethyl ester]: the “bioavailability (comparison between intravenous and oral administration)” value in data set [1] is “good bioavailability”. Moreover, in data set [3], the “Activity Drop in flow” value is given as 7.0% and the “Maximum Coronary Increase” value was 8.3 ± 0.92 ml/min gww.
